Literature values in patent publication US20230309918A1, “TREATING PATHOGENIC INFECTIONS” (priority 2020, published 2023).

Experiments:
[1] = kidneys
NF-κB = conditions: pro-inflammatory signaling pathway involved in Lyme-induced inflammation
HSV-1 IE gene expression = conditions: diminishes the ability of the virus to launch the lytic infectious cycle
[2] = in vivo
Borrelia burgdorferi = conditions: one animal study (Pothineni et al., Sci Rep 2020)

Q: Which toxic side effects [1] does the source give for `Nc1nc2c(ncn2COCCO)c(=O)[nH]1` [Acyclovir] here?
A: toxic side effects in the kidneys

Q: Which results are given for `COc1cc(/C=C/C(=O)CC(=O)/C=C/c2ccc(O)c(OC)c2)ccc1O` [Curcumin]?
A: activation of NF-κB (NF-κB): blocking the activation of NF-κB; effect on HSV-1 IE gene expression (HSV-1 IE gene expression): affect HSV-1 IE gene expression; oral bioavailability [2]: poor

Q: With `O=c1c(O)c(-c2ccc(O)c(O)c2)oc2cc(O)cc(O)c12` [Quercetin] as the compound, how does the solubility in water read?
A: poorly soluble

Q: With `CC1(C)S[C@@H]2[C@H](NC(=O)[C@H](NC(=O)N3CCNC3=O)c3ccccc3)C(=O)N2[C@H]1C(=O)O` [azlocillin] as the compound, how does the “killing of disease-causing bacteria Borrelia burgdorferi” value (Borrelia burgdorferi) read?
A: completely kills off
